Data reported in article PMC7972453, “The allosteric modulation of complement C5 by knob domain peptides” (eLife, 2021).
Like-named read-outs stand apart in the source and are kept apart here. Bridges are numbered along the chain shown (N, C = ends). Where no end group is shown, it is not given here.

How the values were obtained:
[1] = system: classical pathway C5b deposition (complement C5); experiment: Classical pathway C5b deposition ELISA; assay type: biochemical, human; details: n=3 (K8: n=6), ND* = Not detected
Excerpt: Figure 1. Functional modulation of C5 via knob domain peptides. […] Following activation of C1q via antibody Fc, C4 and C2 are cleaved and form C4bC2a (the CP C3 convertase) which cleaves C3 into C3a (not shown) and C3b. At high C3b concentrations, C4bC2aC3b (the CP […]) forms and cleaves C5 into C5a and C5b. C5b associates with C6 and forms the membrane attack complex (MAC) with C7, C8, and multiple copies of C9. […] In the presence of factor B and factor D, C3bBb (the AP C3 convertase) generates additional C3b, prompting formation of C3bBbC3b (the AP C5 convertase), which cleaves C5 into C5a and C5b, driving MAC formation. CP-driven ELISAs (C) and AP-driven ELISAs (D) are shown. For both pathways, the inhibition of C3d (the surface-associated domain of C3b, which is upstream of C5 inhibition), C5a release, and C5b neo-epitope formation and C9 deposition were tracked within the MAC. […] For the AP assays, 5% serum (v/v) gives a putative C5 concentration of 20 nM. For the CP assays, 1% serum (v/v) gives a putative C5 concentration of 4 nM, based on a reported C5 serum concentration of 397 nM/75 µg/mL ([Sjöholm, 1975]).
For the C5b ELISA, assays were run using the CP and AP Complement functional ELISA kits (Svar Life Science, Malmö, Sweden). For sample preparation, serum was diluted as per the respective protocol for the CP and AP assays. […]

[2] = system: classical pathway mediated C5a release (complement C5); experiment: Inhibition of classical pathway mediated C5a release (ELISA); assay type: biochemical, human; details: n=3 (K8: n=5), ND* = Not detected
Procedure: For the C5b ELISA, assays were run using the CP and AP Complement functional ELISA kits (Svar Life Science, Malmö, Sweden). For sample preparation, serum was diluted as per the respective protocol for the CP and AP assays. Serial dilutions of peptides were prepared and allowed to incubate with serum for 15 min at room temperature prior to plating.
For the C5a ELISA, assays were run using the Complement C5a Human ELISA Kit (Invitrogen, Renfrew, UK). For sample preparation, at the end of the 37°C incubation of the serum/peptide samples on the C5b ELISA plate, 50 µL of the diluted, activated serum was transferred to a C5a ELISA plate containing 50 µL/well of assay buffer. All subsequent experimental steps were performed as described in the protocol.
Table 1.3. Inhibition of classical pathway mediated C5a release.
Data from n=3 independent titrations, unless otherwise stated

human C5 = target: T1, human C5 (Homo sapiens, UniProt P01031); experiment: SPR multi-cycle kinetics, binding to C5
T1 construct: tissue TCS Biosciences (serum); host or cells: human serum
Procedure: Kinetics were measured using a Biacore 8K (GE Healthcare, Amersham, UK) with a CM5 chip, which was prepared as follows: 1-ethyl-3-(−3-dimethylaminopropyl) carbodiimide hydrochloride (EDC)/N-hydroxysuccinimide (NHS) was mixed at 1:1 ratio (flow rate, 10 µL/min; contact time, 30 s), and human C5 at 1 µg/mL in pH 4.5 sodium acetate buffer was injected over flow cell one only (flow rate, 10 µL/min; contact time, 60 s). Final immobilisation levels in the range of 2000–3000 RUs were obtained to yield theoretical Rmax values of ~50–60 RU. […] After each injection, the surface was regenerated with two sequential injections of 2 M MgCl2 (flow rate, 30 µL/min; contact time, 30 s). Binding to the reference surface was subtracted, and the data were fitted to a single-site binding model using Biacore evaluation software.
Table 2.6. Validation of molecular interactions by peptide mutagenesis analysis.
Summary of SPR multi-cycle kinetics

human C5b = target: T2, human C5b (Homo sapiens, UniProt P01031); experiment: SPR single-cycle kinetics, binding to C5b
T2 construct: Upon cleavage of C5a, the remaining domains of the α-chain undergo a substantial conformational change; C5a was removed using a spin column with 30 kDa cut-off; tissue TCS Biosciences (serum); host or cells: human serum; C5 cleaved in house with CVF, factor B and factor D
Procedure: Human C5 was affinity purified using an E141A, H164A OmCI column ([Macpherson et al., 2018]). Briefly, human serum (TCS Biosciences, Botolph Claydon, UK) was diluted 1:1 (v/v) with phosphate buffered saline (PBS), 20 mM ethylenediaminetetraacetic acid (EDTA), and applied to a 5 mL Hi-Trap NHS column (GE Healthcare, Amersham UK), which contained 20 mg of E141A H164A OmCI protein, at a rate of 1 mL/min. The column was washed with 5× column volumes (CV) of PBS, C5 was then eluted using 2 M MgCl2 and immediately dialysed into PBS. C5b was prepared from human C5 by incubating C5 with CVF, factor B and factor D, at a 1:10 molar ratio, as previously described ([Jore et al., 2016]). C5a was removed using a spin column with 30 kDa cut-off (Thermo Fisher Scientific, Horsham, UK).
On a Biacore 8K (GE Healthcare, Amersham, UK), human C5b was immobilised on a CM5 chip (GE Healthcare, Amersham, UK). Flow cells were activated using a standard immobilisation protocol: EDC/NHS was mixed at 1:1 ratio (flow rate, 10 µL/min; contact time, 30 s). C5b, at 1 µg/mL, or C5b-6 (Complement Technologies, Tyler, TX), at 2 µg/mL, in pH 4.5 sodium acetate buffer, were immobilised on flow cell two only (flow rate, 10 µL/min; contact time, 420 s). Finally, ethanolamine was applied to both flow cells (flow rate, 10 µL/min; contact time, 420 s). A final immobilisation level of 500–700 RUs was obtained for C5b and 1000–1150 RUs were obtained for C5b-6. Single-cycle kinetics were measured using a seven-point, threefold serial dilution (spanning a range of 1 µM to 1.4 nM) in HBS-EP buffer (GE Healthcare, Amersham, UK). A high flow rate of 40 µL/min was used, with a contact time of 300 s and a dissociation time of 2700 s. Binding to the reference surface was subtracted, and the data were fitted to a single-site binding model using Biacore evaluation software. All sensorgrams were inspected for evidence of mass transport limitation using the flow rate-independent component of the mass transfer constant (tc).
Table 4.1. SPR single-cycle kinetics of knob domains binding to human C5b.

T1 sequence (P01031 678-1676 limits assumed): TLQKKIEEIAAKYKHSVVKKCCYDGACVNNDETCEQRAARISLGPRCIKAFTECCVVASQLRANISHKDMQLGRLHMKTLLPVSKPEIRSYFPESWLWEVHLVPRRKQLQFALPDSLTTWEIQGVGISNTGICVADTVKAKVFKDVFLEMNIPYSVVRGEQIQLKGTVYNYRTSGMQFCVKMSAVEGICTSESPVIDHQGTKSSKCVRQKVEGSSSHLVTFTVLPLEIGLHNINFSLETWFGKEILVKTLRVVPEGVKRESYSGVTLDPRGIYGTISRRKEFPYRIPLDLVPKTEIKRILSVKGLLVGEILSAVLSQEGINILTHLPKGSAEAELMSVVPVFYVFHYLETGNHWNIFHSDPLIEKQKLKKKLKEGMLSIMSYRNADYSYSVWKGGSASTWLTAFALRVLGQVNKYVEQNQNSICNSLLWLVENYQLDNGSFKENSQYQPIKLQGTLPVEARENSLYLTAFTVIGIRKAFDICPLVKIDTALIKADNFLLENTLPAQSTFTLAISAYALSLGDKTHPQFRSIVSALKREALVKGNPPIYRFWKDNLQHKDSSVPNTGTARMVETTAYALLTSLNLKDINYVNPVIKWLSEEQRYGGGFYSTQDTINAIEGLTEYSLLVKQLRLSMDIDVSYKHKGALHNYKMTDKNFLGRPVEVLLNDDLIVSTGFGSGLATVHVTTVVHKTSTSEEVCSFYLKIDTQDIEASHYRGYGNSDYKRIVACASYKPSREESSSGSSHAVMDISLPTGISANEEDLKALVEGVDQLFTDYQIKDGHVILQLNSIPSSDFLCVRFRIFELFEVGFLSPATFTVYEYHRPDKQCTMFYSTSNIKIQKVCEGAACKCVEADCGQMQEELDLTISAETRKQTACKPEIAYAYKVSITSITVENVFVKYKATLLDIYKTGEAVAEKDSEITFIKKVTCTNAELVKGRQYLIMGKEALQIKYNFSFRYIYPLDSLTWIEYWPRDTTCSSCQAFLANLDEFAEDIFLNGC
T1 sequence (P01031 19-673 limits assumed): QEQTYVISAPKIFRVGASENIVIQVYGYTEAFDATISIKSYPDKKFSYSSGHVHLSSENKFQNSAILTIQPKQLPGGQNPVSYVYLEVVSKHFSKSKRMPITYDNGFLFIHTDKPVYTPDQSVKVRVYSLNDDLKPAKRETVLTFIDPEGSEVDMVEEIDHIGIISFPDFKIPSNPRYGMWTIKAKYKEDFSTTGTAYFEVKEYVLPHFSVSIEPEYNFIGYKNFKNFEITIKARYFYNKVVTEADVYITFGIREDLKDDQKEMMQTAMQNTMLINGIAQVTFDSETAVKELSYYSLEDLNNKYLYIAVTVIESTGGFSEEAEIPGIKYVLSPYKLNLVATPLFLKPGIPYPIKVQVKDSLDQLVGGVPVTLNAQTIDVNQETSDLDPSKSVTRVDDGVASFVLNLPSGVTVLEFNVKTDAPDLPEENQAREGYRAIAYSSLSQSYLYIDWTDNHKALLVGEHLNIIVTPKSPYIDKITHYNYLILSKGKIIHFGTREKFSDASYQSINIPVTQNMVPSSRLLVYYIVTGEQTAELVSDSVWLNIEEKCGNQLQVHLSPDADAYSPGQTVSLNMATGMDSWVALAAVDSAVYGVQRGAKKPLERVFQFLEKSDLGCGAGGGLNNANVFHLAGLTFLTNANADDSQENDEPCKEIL
T2 sequence (P01031 752-1676 limits assumed): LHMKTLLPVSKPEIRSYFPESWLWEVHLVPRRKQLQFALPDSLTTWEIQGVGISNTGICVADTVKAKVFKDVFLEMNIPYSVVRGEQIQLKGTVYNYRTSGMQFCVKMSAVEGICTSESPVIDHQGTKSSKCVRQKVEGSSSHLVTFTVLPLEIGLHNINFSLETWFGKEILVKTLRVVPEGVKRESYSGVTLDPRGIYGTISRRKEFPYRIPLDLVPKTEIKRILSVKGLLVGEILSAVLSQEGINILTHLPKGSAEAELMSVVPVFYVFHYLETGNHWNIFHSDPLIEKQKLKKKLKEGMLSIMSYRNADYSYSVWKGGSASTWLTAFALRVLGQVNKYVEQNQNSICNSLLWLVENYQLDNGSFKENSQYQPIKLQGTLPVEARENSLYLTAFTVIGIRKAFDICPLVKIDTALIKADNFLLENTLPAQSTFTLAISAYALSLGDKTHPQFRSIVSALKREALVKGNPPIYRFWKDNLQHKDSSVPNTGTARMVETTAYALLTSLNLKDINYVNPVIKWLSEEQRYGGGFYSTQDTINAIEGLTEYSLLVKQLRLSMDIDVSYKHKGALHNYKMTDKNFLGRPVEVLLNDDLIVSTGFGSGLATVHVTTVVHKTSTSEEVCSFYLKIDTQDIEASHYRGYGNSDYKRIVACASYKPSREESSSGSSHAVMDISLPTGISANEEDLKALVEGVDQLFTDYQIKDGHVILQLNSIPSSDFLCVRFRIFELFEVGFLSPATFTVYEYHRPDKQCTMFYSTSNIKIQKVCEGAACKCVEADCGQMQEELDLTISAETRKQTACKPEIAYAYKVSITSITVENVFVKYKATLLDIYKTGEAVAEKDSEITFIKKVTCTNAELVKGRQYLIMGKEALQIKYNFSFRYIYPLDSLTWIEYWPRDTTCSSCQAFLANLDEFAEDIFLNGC
T2 sequence (P01031 19-673 limits assumed): as the sequence (P01031 19-673 limits assumed) above

Sequence: SVCPDGFDWGYGCAAGSSRFCTRHDWCCYDERADSHTYGFCTGNRVENLYFQ (disulfide 3-28, 13-21, 27-41) [K8]
- Average Emax ([1]; CP C5b ELISA, preincubated 15 min RT): 68.2%
- IC50 ([1]; CP functional ELISA kit (Svar), peptide preincubated with human serum 15 min RT, CP 1% serum, putative 4 nM C5, read-out: Geomean IC50): 9.3 nM
- Average Emax ([2]; CP C5a release): 57.7%
- IC50 ([2]; CP, C5a Human ELISA kit (Invitrogen) on activated serum from C5b ELISA plate, read-out: Geomean IC50): 9.9 nM
- mean stoich. ratio (human C5; Biacore 8K, mean of n=3): 0.25
- koff (human C5; pH 7.4, read-out: mean koff, Biacore 8K, HBS-EP pH 7.4, mean of n=3): 0.000385 s⁻¹
- kon (human C5; pH 7.4, read-out: mean kon, Biacore 8K, CM5 chip, HBS-EP pH 7.4, mean of n=3): 70500 M⁻¹ s⁻¹
- koff (human C5; replicate n=1): 0.000372 s⁻¹
- kon (human C5; replicate n=1): 71000 M⁻¹ s⁻¹
- stoich. ratio (human C5; replicate n=1): 0.28
- koff (human C5; replicate n=2): 0.000422 s⁻¹
- kon (human C5; replicate n=2): 72600 M⁻¹ s⁻¹
- stoich. ratio (human C5; replicate n=2): 0.23
- koff (human C5; replicate n=3): 0.000361 s⁻¹
- kon (human C5; replicate n=3): 67800 M⁻¹ s⁻¹
- stoich. ratio (human C5; replicate n=3): 0.24
- binding to C5b (in words) (human C5b; SPR single-cycle kinetics): did not bind C5b
- Stoichiometric ratio (human C5b; replicate n=1): 0.1
- comment (binding) (human C5b; replicate n=1): Non-binding
- Stoichiometric ratio (human C5b; replicate n=2): 0.1
- comment (binding) (human C5b; replicate n=2): Non-binding
- Stoichiometric ratio (human C5b; replicate n=3): 0.2
- comment (binding) (human C5b; replicate n=3): Non-binding
- Mean stoichiometric ratio (human C5b; summary of n=3): 0.1
- comment (binding) (human C5b; summary of n=3): Non-binding
